B1: mEnbrel: fully mouse version of Enbrel: mouse TNFR1B extracellular domain (Val-23 to Gly-258) fused to mouse IgG2A, TNFα blocking agent (protein, listed as Mus musculus)
chain: MRAWIFFLLCLAGRALAVPAQVVLTPYKPEPGYECQISQEYYDRKAQMCCAKCPPGQYVKHFCNKTSDTVCADCEASMYTQVWNQFRTCLSCSSSCTTDQVEIRACTKQQNRVCACEAGRYCALKTHSGSCRQCMRLSKCGPGFGVASSRAPNGNVLCKACAPGTFSDTTSSTDVCRPHRICSILAIPGNASTDAVCAPESPTLSAIPRTLYVSQPEPTRSQPLDQEPGPSQTPSILTSLGSTPIIEQSTKGGEPRGPTIKPCPPCKCPAPNLLGGPSVFIFPPKIKDVLMISLSPIVTCVVVDVSEDDPDVQISWFVNNVEVHTAQTQTHREDYNSTLRVVSALPIQHQDWMSGKEFKCKVNNKDLPAPIERTISKPKGSVRAPQVYVLPPPEEEMTKKQVTLTCMVTDFMPEDIYVEWTNNGKTELNYKNTEPVLDSDGSYFMYSKLRVEKKNWVERNSYSCSVVHEGLHNHHTTKSFSRTPGK
modifications: SIGNAL (1)..(17) Osteonectin signal sequence; (18)..(253) Mouse TNFR1B (V23 - G258); (254)..(486) Mouse IgG2a

Tests used:
Type in all cases: in vivo, mice (male DBA/1)
[1] = test system: collagen-induced arthritis model; assay: Collagen-induced arthritis in mice, clinical score (arthritic index); details: for disease score: mouse CIA, Compound (I) 0.25 mg/kg oral once daily from day 21, mEnbrel 10 mg/kg i.p. twice per week from primary immunization, combination 0.25+10 mg/kg
Method: Male DBA/1 mice (9-11 weeks of age, Harlan) were primed with bovine type II collagen (Chondrex #20021) in adjuvant (Sigma adjuvant system, Sigma Aldrich #S6322) at the base of tail on day 1 and on day 21. Mice were randomized into 7 groups based on body weight and assigned as either vehicle (10% ethanol; 45% PEG 300; 5% pluronic F-68; 40% 20 mM citrate buffer); Compound (I) at 0.25 and 2.5 mg/kg or mEnbrel (mouse Enbrel) at 10 mg/kg or combination of Compound (I) with mEnbrel at 0.25+10 mg/kg and 2.5+10 mg/kg or mCTLA4 (mouse CTLA4-Ig) (as a reference compound) at 3 mg/kg dose level. Compound (I) was administered from day 21 by oral gavage once daily whereas mEnbrel and mCTLA4 were administered from day of primary immunization, twice per week by intraperitoneal injection. Disease activity was monitored and scored twice per week using standard criteria (0: normal; 1: mild, but definite redness and swelling of the ankle or wrist, or apparent redness and swelling limited to individual digits regardless of number of affected digits; 2: moderate redness and swelling of ankle or wrist; 3: severe redness and swelling of the entire paw including digits; 4: maximally inflamed limb with involvement of multiple joints).
Compound (I) was tested in the semi-therapeutic mode of treatment in mouse collagen-induced arthritis model. Dosing initiated after the antigen boost (from day 21) and continued up to day 45.
Compound (I) was tested in combination with the TNFα blocking agent mEnbrel in the collagen-induced arthritis model where dosing of Compound (I) was initiated after the antigen boost whereas mEnbrel was administered from the day of primary immunization.
Mice were treated with respective treatment. During the entire study course (A) and at the time of termination (B) disease was assessed by measuring the clinical score (arthritic index). Data are from one experiment with 10 mice per group. ***P<0.0001 versus vehicle by one-way ANOVA with a Dunnett test.

[2] = test system: IL-6; assay: Plasma IL-6 at termination in collagen-induced arthritis model; details: Compound (I) alone, 0.25 and 2.5 mg/kg
Method: Male DBA/1 mice (9-11 weeks of age, Harlan) were primed with bovine type II collagen (Chondrex #20021) in adjuvant (Sigma adjuvant system, Sigma Aldrich #S6322) at the base of tail on day 1 and on day 21. Mice were randomized into 7 groups based on body weight and assigned as either vehicle (10% ethanol; 45% PEG 300; 5% pluronic F-68; 40% 20 mM citrate buffer); Compound (I) at 0.25 and 2.5 mg/kg or mEnbrel (mouse Enbrel) at 10 mg/kg or combination of Compound (I) with mEnbrel at 0.25+10 mg/kg and 2.5+10 mg/kg or mCTLA4 (mouse CTLA4-Ig) (as a reference compound) at 3 mg/kg dose level. Compound (I) was administered from day 21 by oral gavage once daily whereas mEnbrel and mCTLA4 were administered from day of primary immunization, twice per week by intraperitoneal injection. Disease activity was monitored and scored twice per week using standard criteria (0: normal; 1: mild, but definite redness and swelling of the ankle or wrist, or apparent redness and swelling limited to individual digits regardless of number of affected digits; 2: moderate redness and swelling of ankle or wrist; 3: severe redness and swelling of the entire paw including digits; 4: maximally inflamed limb with involvement of multiple joints). […] At the time of termination (A) serum anti-collagen antibody titer and (B) plasma IL-6 was assessed. […]

[3] = test system: anti-collagen antibodies; assay: Serum anti-collagen antibody titer at termination in collagen-induced arthritis model; details: Compound (I) alone, 0.25 and 2.5 mg/kg
Method: (§1) Male DBA/1 mice (9-11 weeks of age, Harlan) were primed with bovine type II collagen (Chondrex #20021) in adjuvant (Sigma adjuvant system, Sigma Aldrich #S6322) at the base of tail on day 1 and on day 21. Mice were randomized into 7 groups based on body weight and assigned as either vehicle (10% ethanol; 45% PEG 300; 5% pluronic F-68; 40% 20 mM citrate buffer); Compound (I) at 0.25 and 2.5 mg/kg or mEnbrel (mouse Enbrel) at 10 mg/kg or combination of Compound (I) with mEnbrel at 0.25+10 mg/kg and 2.5+10 mg/kg or mCTLA4 (mouse CTLA4-Ig) (as a reference compound) at 3 mg/kg dose level. […] Disease activity was monitored and scored twice per week using standard criteria (0: normal; 1: mild, but definite redness and swelling of the ankle or wrist, or apparent redness and swelling limited to individual digits regardless of number of affected digits; 2: moderate redness and swelling of ankle or wrist; 3: severe redness and swelling of the entire paw including digits; 4: maximally inflamed limb with involvement of multiple joints). […]
FIG. 2: Inhibition of circulating markers by Compound (I) alone and in combination with mEnbrel. […] At the time of termination (A) serum anti-collagen antibody titer and (B) plasma IL-6 was assessed. […]

[4] = Pharmacokinetics of Compound (I) in CIA model, whole blood (DBS) drug concentration by LCMS
Method: as §1
FIG. 3: Pharmacokinetic analysis of Compound (I) in CIA model of arthritis. […] Following 19 days of dosing, whole blood was drawn at different time points and DBS drug concentrations were measured by LCMS. […]

| Molecule | arthritic score at the termination of the study ([1]; Compound (I) alone, 0.25 and 2.5 mg/kg oral once daily from day 21) | disease score [1] | inhibition of clinical signs of disease, earliest time ([1]; semi-therapeutic mode, dosing from day 21 up to day 45, 0.25 and 2.5 mg/kg oral once daily) [days post dosing] | plasma IL-6 [2] | serum anti-collagen-antibody titer [3] | whole blood drug concentration ([4]; 0.25 and 2.5 mg/kg oral, after 19 days of dosing, 1-24 h post dose) | whole blood concentration of Compound (I) in the presence of mEnbrel ([4]; co-treatment with mEnbrel 10 mg/kg) |
| --- | --- | --- | --- | --- | --- | --- | --- |
| Cc1c(-c2[nH]c3ccc(C4CCN(CC(N)=O)CC4)cc3c2C(C)C)cn2ncnc2c1C [Compound (I), 2-(4-(2-(7,8-dimethyl-[1,2,4]triazolo[1,5-a]pyridin-6-yl)-3-isopropyl-1H-indol-5-yl)piperidin-1-yl)acetamide] | Significant dose dependent suppression | 82 % of control | 7 | dose dependent reduction | dose dependent reduction | dose dependent increase | not altered |
| B1 | – | 56 % of control | – | – | – | – | – |

Source: patent US20230310409A1, “TREATING RHEUMATOID ARTHRITIS” (BRISTOL-MYERS SQUIBB COMPANY, priority 2020, published 2023)
